{
  "source": "patent US20150038541A1",
  "about": "“COMPOSITION AND METHODS FOR CELL MODULATION” (APOSIGNAL BIOSCIENCE LLC, priority 2012, published 2015)",
  "key": {"HeLa cells [1]": {"tested_on": "HeLa cells", "test": "Cell proliferation (growth rate, crystal violet) of HeLa cells with AS-7 by itself", "assay_type": "cell-based, human", "procedure": "Cell lines were plated at a sparse density in order to measure the rate of growth over a several day interval and obviate the effect of limited culture surface on the growth rate. The impact of AS-7 on cell proliferation became clear after two days and was dramatic after several days. While the impact of AS-7 was modest after two days, it became substantial after more than two days because the reduction in growth rate has the greatest impact on cell number after the cultures have expanded by several population doublings. […] AS-7 inhibited the rate of cell proliferation by 67% at a concentration of approximately 10 μM (FIG. 10). […] The following cell lines were used to determine the effect of AS-7 on the rate of proliferation: HeLa, melanoma […], ovarian A2780, and breast T47D. All cell line were grown in culture medium (RPMI 1640 for the breast cancer cells and Dulbecco's modified Eagle's medium for the other cell lines) containing 10% heat inactivated fetal bovine serum without antibiotics (penicillin and streptomycin)."}, "[2]": {"tested_on": "ovarian tumor derived IGROV cells", "test": "Crystal violet cell viability of ovarian IGROV cells, bortezomib with or without AS-7 (72 hours)", "assay_type": "cell-based", "conditions": "10 μM AS-7", "procedure": "Ovarian tumor-derived cell lines, IGROV and A2780, were seeded in a 96 well tissue culture plate (2000 cells per well). The compounds, 10 μM AS-7 and bortezomib (BioVision, Inc., Milpitas, Calif.) at the concentrations indicated in the figures, were added the following day. AS-7 was prepared as described in Example I above. […] Values are relative to cells that with the vehicle in which the drugs were dissolved. Vehicle had no effect on cell viability. Error bars in FIG. 6 and FIG. 7 are not shown if they are smaller than the symbols."}, "HeLa cells [3]": {"tested_on": "HeLa cells", "test": "FACS analysis after propidium iodide staining (cell cycle, apoptosis) of HeLa cells", "assay_type": "cell-based, human", "procedure": "FIG. 15 illustrates that AS-7 evokes accumulation HeLa cells in the G0-G1 phase of the cell cycle. HeLa cells were harvested two days after treatment with or without AS-7, stained with propidium iodide and subjected to analysis by FACS (Fluorescence Activated Cell Sorter).\nFIG. 17 illustrates that AS-7 blocks exit from the Go-G1 phase of the cell cycle. HeLa cells were treated with nocodazole which evoked accumulation of the cells in the G2-M phase of the cell cycle (Nocodazole Blocked). The cells were released from the nocodazole block and treated with or without AS-7. After 16 hours the cells were stained with propidium iodide and subjected to analysis by FACS (Fluorescence Activated Cell Sorter).\nThe appearance of essentially all of the AS-7 treated cells was indistinguishable from that of the untreated cells.\n(§1) A single addition of 10 μM AS-7 for 1 day to 7 or more days was sufficient to evoke accumulation in the Go-G1 phase of the cell cycle (FIGS. 15 and 16) (data not shown). […] HeLa cells were treated with nocodazole (100 ng/ml) for 12 h which evoked accumulation of rounded, loosely attached cells in mitosis. The mitotic cells were harvested and treated with or without 10 μM AS-7 in the absence of nocodazole (Released, 16 hours)."}, "breast T47D cells [4]": {"tested_on": "breast T47D cells", "test": "FACS cell cycle analysis after propidium iodide staining of breast T47D cells", "assay_type": "cell-based, human", "conditions": "10 μM AS-7", "procedure": "FIG. 16 illustrates that AS-7 evokes accumulation of breast T47D cells in the G0-G1 phase of the cell cycle. T47D cells were harvested one, two, or three days after treatment with or without AS-7, stained with propidium iodide and subjected to analysis by FACS (Fluorescence Activated Cell Sorter).\nas §1"}, "breast T47D cells [5]": {"tested_on": "breast T47D cells", "test": "Cell proliferation (growth rate, crystal violet) of breast T47D cells with AS-7 by itself", "assay_type": "cell-based, human", "conditions": "10 μM AS-7, vehicle doubling time 1.4 days", "procedure": "To examine the effect of AS-7 on the growth of several different cell lines, AS-7 at 10 μM was added to the culture medium the day after seeding the cells. The following cell lines were used to determine the effect of AS-7 on the rate of proliferation: HeLa, melanoma A2620, ovarian A2780, and breast T47D. All cell line were grown in culture medium (RPMI 1640 for the breast cancer cells and Dulbecco's modified Eagle's medium for the other cell lines) containing 10% heat inactivated fetal bovine serum without antibiotics (penicillin and streptomycin). […] The doubling times in HeLa, melanoma, ovarian and breast cancer derived cells were 0.9, 2.5, 1.0, and 1.4 days, respectively. AS-7 increased the doubling times of the HeLa, melanoma, ovarian, and breast cancer derived cells by 1.3, 1.3, 1.6, and 3.1 fold, respectively (FIGS. 11 through 14)."}, "[6]": {"test": "Solubility in aqueous solutions", "assay_type": "physicochemical", "excerpt": "The ubiquitin-proteasome sensitizer compound and/or the ubiquitin-proteasome inhibitor compounds utilized in the method provided herein may also be modified by appending appropriate functionalities to enhance selective biological properties. Such modifications are known in the art and include those which increase biological penetration into a given biological system (e.g., blood, lymphatic system, central nervous system), increase oral availability, increase solubility to allow administration by injection, alter metabolism and alter rate of excretion. […] In some embodiments, AS-7 or an active derivative thereof can be dissolved at 50 mM AS-7 in dimethylsulfoxide containing 5% Cremaphor® EL detergent (Sigma Aldrich) and diluted approximately one thousand fold in a physiologic salt solution such as saline containing albumin in the range of the albumin concentration of blood. Alternatively, nanoparticles containing AS-7 or an active derivative thereof are administered to the subject. Nanoparticles can be made by mixing human albumin at a 3-4% solution in a salt solution of the desired pH and ionic strength, subjecting the solution to elevated pressure and releasing the solution via a small jet. Nanoparticles of optimal size can be purified by differential centrifugation. […]"}, "159C cells": {"tested_on": "159C cells", "test": "MTS cell viability of breast cancer 159C cells, bortezomib with or without AS-7", "assay_type": "cell-based", "conditions": "10 μM AS-7, data not shown", "procedure": "Breast cancer derived cell lines, T47D and 159C, were seeded in a 96 well tissue culture plate (2000 cells per well). The significance of these two lines of breast cancer derived cell lines is that the T47D cells positive for three markers used to optimize the chemotherapeutic treatment, namely HER2 receptor, estrogen receptor, and progesterone receptor. By contrast to the T47D cells, the 159C cells are negative for the three markers. The compounds, 10 μM AS-7 and a range of bortezomib (BioVision, Inc., Milpitas, Calif.) concentrations were added the following day. After 48 hours, MTS was added and absorbance was measured at 490 nm."}, "HeLa cells [7]": {"tested_on": "HeLa cells", "test": "MTS cell viability of HeLa cells treated with anticancer drug with or without AS-7 (48 hours)", "assay_type": "cell-based, human", "conditions": "HeLa cells; 10 μM AS-7"}},
  "data": [
    {"smiles": "N#Cc1cccc(C(C(=O)NCC(c2ccccc2)c2ccccc2)N(CCc2c[nH]cn2)C(=O)c2ccccc2C(=O)c2ccccc2)c1", "note": "(centres unmarked) [AS-7]", "values": [
      {"measurement": "rate of growth of HeLa cells", "setting": "HeLa cells [1]; AS-7 alone", "value": "moderately decreased"},
      {"measurement": "cell viability, microscopic observation of the cultures", "setting": "HeLa cells [1]; AS-7 by itself, each of the cancer-derived cell lines tested", "value": "did not decrease cell viability"},
      {"measurement": "inhibition of the rate of cell proliferation", "setting": "HeLa cells [1]; HeLa cells (FIG. 10), approximately 10 μM AS-7", "value": 67, "unit": "%"},
      {"measurement": "increase of doubling time", "setting": "HeLa cells [1]; HeLa cells, 10 μM AS-7, vehicle doubling time 0.9 days", "value": 1.3, "unit": "fold"},
      {"measurement": "IC50", "setting": "HeLa cells [1]; Homo sapiens, HeLa cells (FIG. 10), AS-7 by itself, read-out: IC50 for growth inhibition", "value": "~7", "unit": "µM"},
      {"measurement": "potentiation of the cytotoxic action of bortezomib (loss of cell viability)", "setting": "[2]", "value": "markedly potentiates"},
      {"measurement": "induction of apoptosis (FACS, propidium iodide)", "setting": "HeLa cells [3]; HeLa cells treated with AS-7 for several days, data not shown", "value": "failed to induce apoptosis"},
      {"measurement": "cell cycle distribution (FACS, propidium iodide)", "setting": "HeLa cells [3]; HeLa cells, 10 μM AS-7", "value": "evoked the accumulation"},
      {"measurement": "cell cycle progression after release from nocodazole block", "setting": "HeLa cells [3]; HeLa cells, 10 μM AS-7, 16 hours after release", "value": "blocked exit from the G0-G1 phase"},
      {"measurement": "cell cycle distribution (FACS, propidium iodide)", "setting": "breast T47D cells [4]", "value": "evoked the accumulation"},
      {"measurement": "increase of doubling time", "setting": "breast T47D cells [5]", "value": 3.1, "unit": "fold"},
      {"measurement": "solubility in aqueous solutions", "setting": "[6]", "value": "limited solubility in aqueous solutions"},
      {"measurement": "potentiation of the cytotoxic action of bortezomib", "setting": "159C cells", "value": "markedly potentiated"},
      {"measurement": "increase in potency of the cytotoxic action of carfilzomib by AS-7", "setting": "HeLa cells [7]", "value": "approximately 3.5 fold"}
    ]}
  ]
}
